According to ChEMBL document CHEMBL1129998, “Pharmacological options in the treatment of benign prostatic hyperplasia” (J Med Chem, 1997):

What was measured:
[1] = molecular target: T1, Alpha-1B adrenergic receptor (Homo sapiens, UniProt P35368); assay: Binding affinity was tested on human Alpha-1B adrenergic receptor
T1 sequence (P35368 whole entry): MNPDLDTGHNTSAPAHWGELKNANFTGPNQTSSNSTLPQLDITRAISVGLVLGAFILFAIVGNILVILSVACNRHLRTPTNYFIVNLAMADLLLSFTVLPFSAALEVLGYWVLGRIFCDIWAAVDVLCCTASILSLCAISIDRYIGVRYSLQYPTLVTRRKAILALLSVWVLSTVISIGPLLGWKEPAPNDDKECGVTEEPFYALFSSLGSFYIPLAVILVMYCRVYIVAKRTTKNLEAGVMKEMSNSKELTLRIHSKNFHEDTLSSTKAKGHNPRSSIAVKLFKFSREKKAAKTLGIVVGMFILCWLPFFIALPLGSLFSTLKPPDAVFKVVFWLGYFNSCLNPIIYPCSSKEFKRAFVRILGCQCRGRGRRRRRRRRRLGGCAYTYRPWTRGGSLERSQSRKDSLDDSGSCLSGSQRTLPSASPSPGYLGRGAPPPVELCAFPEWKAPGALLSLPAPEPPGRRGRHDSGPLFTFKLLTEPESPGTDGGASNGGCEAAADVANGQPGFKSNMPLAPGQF

[2] = molecular target: T2, Alpha-1A adrenergic receptor (Homo sapiens, UniProt P35348); assay: Binding affinity was tested on human Alpha-1A adrenergic receptor
T2 sequence (P35348 whole entry): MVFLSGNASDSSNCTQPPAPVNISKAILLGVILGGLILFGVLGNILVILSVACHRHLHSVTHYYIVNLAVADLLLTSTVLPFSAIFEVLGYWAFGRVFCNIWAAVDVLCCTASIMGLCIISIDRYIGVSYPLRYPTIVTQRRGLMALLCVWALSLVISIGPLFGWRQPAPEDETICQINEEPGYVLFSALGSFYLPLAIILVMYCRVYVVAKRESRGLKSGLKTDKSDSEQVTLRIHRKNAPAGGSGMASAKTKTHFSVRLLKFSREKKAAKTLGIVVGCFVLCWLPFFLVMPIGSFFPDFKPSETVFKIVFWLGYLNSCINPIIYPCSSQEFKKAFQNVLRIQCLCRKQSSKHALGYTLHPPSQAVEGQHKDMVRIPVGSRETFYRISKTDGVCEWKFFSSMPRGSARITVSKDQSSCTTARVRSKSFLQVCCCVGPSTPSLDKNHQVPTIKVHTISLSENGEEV

[3] = molecular target: T3, Alpha-1D adrenergic receptor (Homo sapiens, UniProt P25100); assay: Binding affinity was tested on human Alpha-1D adrenergic receptor
T3 sequence (P25100 whole entry): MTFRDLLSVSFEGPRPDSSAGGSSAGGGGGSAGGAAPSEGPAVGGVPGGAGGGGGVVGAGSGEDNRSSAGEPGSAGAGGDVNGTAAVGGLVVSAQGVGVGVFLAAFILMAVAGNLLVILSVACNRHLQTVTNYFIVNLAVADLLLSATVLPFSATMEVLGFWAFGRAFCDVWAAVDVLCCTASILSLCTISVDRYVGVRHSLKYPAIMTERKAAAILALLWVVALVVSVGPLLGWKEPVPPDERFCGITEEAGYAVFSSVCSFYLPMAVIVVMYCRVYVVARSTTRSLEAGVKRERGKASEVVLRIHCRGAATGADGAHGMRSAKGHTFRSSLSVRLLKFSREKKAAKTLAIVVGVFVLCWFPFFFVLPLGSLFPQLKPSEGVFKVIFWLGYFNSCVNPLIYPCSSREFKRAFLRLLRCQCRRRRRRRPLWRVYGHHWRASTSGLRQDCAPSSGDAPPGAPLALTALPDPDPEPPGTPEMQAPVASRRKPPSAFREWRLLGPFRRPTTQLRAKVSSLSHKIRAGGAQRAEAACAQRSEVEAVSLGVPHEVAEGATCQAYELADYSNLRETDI

[4] = molecular target: T4, 3-oxo-5-alpha-steroid 4-dehydrogenase 1 (Homo sapiens, UniProt P18405); assay: Inhibitory concentration was tested on human 5-alpha reductase 1 isozyme
T4 sequence (P18405 whole entry): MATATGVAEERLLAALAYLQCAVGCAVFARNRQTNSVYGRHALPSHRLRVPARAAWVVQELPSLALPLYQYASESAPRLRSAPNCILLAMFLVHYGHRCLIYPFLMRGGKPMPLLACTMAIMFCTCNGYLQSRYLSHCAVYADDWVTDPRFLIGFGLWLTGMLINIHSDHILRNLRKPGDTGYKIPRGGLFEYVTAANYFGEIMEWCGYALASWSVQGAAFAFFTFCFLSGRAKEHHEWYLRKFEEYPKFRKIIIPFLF

[5] = molecular target: T5, 3-oxo-5-alpha-steroid 4-dehydrogenase 2 (Homo sapiens, UniProt P31213); assay: Inhibition of human 5-alpha reductase 2 isozyme.
T5 sequence (P31213 whole entry): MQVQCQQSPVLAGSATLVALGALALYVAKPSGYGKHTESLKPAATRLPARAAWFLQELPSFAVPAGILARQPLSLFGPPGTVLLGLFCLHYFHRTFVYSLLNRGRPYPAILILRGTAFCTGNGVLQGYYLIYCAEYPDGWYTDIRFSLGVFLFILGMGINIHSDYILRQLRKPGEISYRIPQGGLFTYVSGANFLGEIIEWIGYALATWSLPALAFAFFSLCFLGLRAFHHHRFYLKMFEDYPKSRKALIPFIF

[6] = molecular target: T6, Steroid 5-alpha-reductase (Rattus norvegicus, UniProt P24008+P31214); assay: Inhibition of rat 5-alpha reductase isozyme.; type: protein assay
T6 sequence (P24008 whole entry): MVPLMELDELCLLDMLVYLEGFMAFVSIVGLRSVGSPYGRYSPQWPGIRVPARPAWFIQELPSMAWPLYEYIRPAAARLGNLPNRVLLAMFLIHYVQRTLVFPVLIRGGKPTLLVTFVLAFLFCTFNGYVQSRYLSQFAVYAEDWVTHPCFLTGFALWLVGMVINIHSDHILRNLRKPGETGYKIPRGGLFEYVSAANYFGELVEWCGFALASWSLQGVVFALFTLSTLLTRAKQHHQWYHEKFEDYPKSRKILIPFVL
T6 sequence (P31214 whole entry): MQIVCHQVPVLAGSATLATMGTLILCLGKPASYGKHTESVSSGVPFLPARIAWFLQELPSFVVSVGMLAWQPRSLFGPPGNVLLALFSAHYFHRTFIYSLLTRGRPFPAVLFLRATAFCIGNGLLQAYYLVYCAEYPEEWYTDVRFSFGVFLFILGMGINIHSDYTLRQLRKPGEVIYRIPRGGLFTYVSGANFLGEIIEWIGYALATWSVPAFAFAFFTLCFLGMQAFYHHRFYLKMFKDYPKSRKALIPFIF

[7] = Apparent binding affinity on human 5-alpha reductase isozyme

COc1c(C)c(C)c(O)c(C)c1CN(C)CCOc1cc(C)c(O)cc1C(C)C
Ki [1]: 1.26 nM | Ki [2]: 0.398 nM | Ki [3]: 1.26 nM

CC(C)CCCC(C)[C@H]1CCC2C3C(CC[C@@]21C)[C@@]1(C)CCC(=O)N(C)C1C[C@@H]3c1ccccc1 (some centres undefined)
IC50 [4]: 134 nM | IC50 [5]: 428 nM

CN1C(=O)CC[C@]2(C)c3ccc(Cl)cc3CCC12 (some centres undefined)
IC50 [4]: 17 nM

C[C@]12C=CC(=O)NC1CCC1C2CC[C@@]2(C)C1CC[C@@H]2C(=O)Nc1cccc(-c2ccccc2)c1 (some centres undefined)
IC50 [4]: 14 nM | IC50 [5]: < 0.1 nM

COc1cccc(OC)c1OCCNCC1COc2ccccc2O1 (centres undefined)
Ki [2]: 0.158 nM

C[C@]12C=CC(=O)NC1CCC1C2CC[C@@]2(C)C1CC[C@@H]2C(=O)Nc1ccccc1 (some centres undefined)
IC50 [4]: 20 nM | IC50 [5]: < 0.1 nM

C[C@]12C=CC(=O)NC1CCC1C2CC[C@@]2(C)C1CC[C@@H]2C(=O)Nc1ccccc1C(F)(F)F (some centres undefined)
IC50 [4]: 5.6 nM | IC50 [5]: < 0.1 nM

COc1ccccc1N1CCN(CCN2C(=O)CC3(CCCC3)CC2=O)CC1
Ki [1]: 631 nM

CCC1=C(C(=O)NCCCN2CCC(c3ccccc3)(c3ccccc3)CC2)C(c2ccc([N+](=O)[O-])cc2)/C(=C(\O)OC)C(C)=N1 (centres undefined)
Ki [1]: 148 nM | Ki [2]: 0.661 nM | Ki [3]: 204 nM

C[C@H](Cc1cc2c(c(C(N)=O)c1)N(CCCO)CC2)NCCOc1ccccc1OCC(F)(F)F [SILODOSIN]
Ki [1]: 20 nM | Ki [2]: 0.0398 nM | Ki [3]: 2 nM

CO/C(O)=C1\C(C)=NC(C)=C(C(=O)NCCCCN2CCC(c3ccccc3)(c3ccccc3)CC2)C1c1ccc([N+](=O)[O-])cc1 (centres undefined)
Ki [1]: 64.6 nM | Ki [2]: 5.89 nM | Ki [3]: 145 nM

CC(=O)CC(=O)NCCCN1CCC(c2ccccc2)(c2ccccc2)CC1
Ki [2]: 100 nM

CCOc1ccccc1OCCN[C@H](C)Cc1ccc(OC)c(S(N)(=O)=O)c1 (stereo in doubt; form 2) [TAMSULOSIN]
Ki [1]: 1.26 nM

CCN(CC)C(=O)[C@H]1CC[C@H]2[C@@H]3CC[C@H]4N(C)C(=O)CC[C@]4(C)[C@H]3CC[C@]12C
IC50 [4]: 1.7 nM | IC50 [6]: 9.5 nM | IC50 [5]: 1.9 nM

COc1ccc(CCNCC2CCc3ccccc3C2)cc1 (centres undefined)
Ki [1]: 39.8 nM | Ki [2]: 3.98 nM | Ki [3]: 158 nM

C[C@]12C=CC(=O)NC1CCC1C2CC[C@@]2(C)C1CC[C@@H]2C(=O)N(c1ccccc1)c1ccccc1 (some centres undefined)
IC50 [4]: > 1000 nM | IC50 [5]: 25.2 nM

O=C(O)c1ccc2c(c1)CCc1cc(Br)ccc1-2
IC50 [4]: 26 nM | IC50 [5]: 10000 nM

Cc1c(O[C@@H](C)c2ccc(CC(C)C)cc2)ccc(C(=O)Nc2ccccc2OCCCC(=O)O)c1C
IC50 [5]: 256 nM

CC(C)N(C(=O)[C@H]1CCC2C3CC=C4C=C(C(=O)O)CC[C@]4(C)C3CC[C@@]21C)C(C)C (some centres undefined)
Ki [7]: 7 nM

CC(C)N(C(=O)[C@H]1CCC2C3CC=C4C=C([N+](=O)[O-])CC[C@]4(C)C3CC[C@@]21C)C(C)C (some centres undefined)
Ki [7]: 590 nM

CO/C(O)=C1\C(C)=NC(C)=C(C(=O)NCCCN2CCC(c3ccccc3)(c3ccccc3)CC2)C1c1ccc(OC(C)C)cc1 (centres undefined)
Ki [1]: 174 nM | Ki [2]: 69.2 nM | Ki [3]: 891 nM

COc1cc2nc(N3CCN(C(=O)c4ccco4)[C@H]4CCCC[C@H]43)nc(N)c2cc1OC [CYCLAZOSIN]
Ki [2]: 25.1 nM

CC(C)N(C(=O)[C@H]1CCC2C3CCC4C=C([N+](=O)[O-])C=CC4(C)C3CC[C@@]21C)C(C)C (single isomer, unassigned)
Ki [7]: > 5000 nM

CC(C)CCCC(C)[C@H]1CCC2C3CCC4N(C)C(=O)CC[C@]4(C)C3CC[C@@]21C (some centres undefined)
IC50 [4]: 1.7 nM | IC50 [5]: 218 nM

CC(C)Cc1ccc([C@@H](C)Oc2ccc(C(=O)c3cn(CCCC(=O)O)c4ccccc34)cc2)cc1
IC50 [4]: 574 nM | IC50 [6]: 30 nM | IC50 [5]: 69 nM

C[C@]12C=CC(=O)NC1CCC1C2CC[C@@]2(C)C1CC[C@@H]2C(=O)Nc1cc(C(F)(F)F)ccc1C(F)(F)F (some centres undefined)
IC50 [4]: 2.4 nM | IC50 [5]: 0.5 nM

CC(C)N(C(=O)[C@H]1CCC2C3CCC4C=C([N+](=O)[O-])CC[C@]4(C)C3CC[C@@]21C)C(C)C (some centres undefined)
Ki [7]: 50 nM

CCOc1ccccc1OCCN[C@H](C)Cc1ccc(OC)c(S(N)(=O)=O)c1 (stereo in doubt; form 3) [TAMSULOSIN]
Ki [1]: 100 nM | Ki [3]: 7.94 nM

CC(C)CCCC(C)[C@H]1CCC2C3CC=C4NC(=O)CC[C@]4(C)C3CC[C@@]21C (some centres undefined)
IC50 [4]: 19.1 nM

CCN1C(=O)CC[C@]2(C)C3CC[C@@]4(C)C(CC[C@@H]4C(C)CCCC(C)C)C3[C@@H](C)CC12 (some centres undefined)
IC50 [4]: 3.3 nM | IC50 [5]: 1390 nM

CCC1=NC(CC)=C(C(=O)NCCCN2CCC(c3ccccc3)(c3ccccc3)CC2)C(c2ccc([N+](=O)[O-])cc2)/C1=C(\O)OC (centres undefined)
Ki [1]: 282 nM | Ki [2]: 1.26 nM | Ki [3]: 447 nM

CC(C)Cc1ccc(C(Nc2cccc(C(=O)c3cn(CCCC(=O)O)c4ccccc34)c2)c2ccc(CC(C)C)cc2)cc1
IC50 [4]: 38 nM | IC50 [6]: 128 nM | IC50 [5]: 36 nM

C[C@]12C=CC(=O)NC1CCC1C2CC[C@@]2(C)C1CC[C@@H]2C(=O)Nc1cccc2ccccc12 (some centres undefined)
IC50 [4]: 8.1 nM | IC50 [5]: 0.2 nM

COc1cc2nc(N(C)CCCNC(=O)C3CCCO3)nc(N)c2cc1OC (centres undefined) [ALFUZOSIN]
Ki [1]: 10 nM

CCCc1ccc(OC(C)c2ccc(C(=O)c3cn(CCCC(=O)O)c4ccccc34)cc2)cc1 (centres undefined)
IC50 [4]: 8 nM | IC50 [6]: 5 nM | IC50 [5]: 10 nM

Cc1c(C(=O)c2ccc3c(c2)OC(c2ccc(Cl)cc2)(c2ccc(Cl)cc2)O3)c2ccccc2n1CCCC(=O)O
IC50 [4]: 10 nM | IC50 [6]: 588 nM | IC50 [5]: 6300 nM

CC(C)Cc1ccc([C@H](C)Oc2ccc(C(=O)c3cn(CCCC(=O)O)c4ccccc34)cc2)cc1
IC50 [4]: 40 nM | IC50 [6]: 1 nM | IC50 [5]: 4 nM

CN(C(=O)[C@H]1CCC2C3CCC4NC(=O)C=C[C@]4(C)C3CC[C@@]21C)c1ccccc1 (some centres undefined)
IC50 [4]: 350 nM | IC50 [5]: 0.2 nM

CC(C)Cc1ccc([C@]2(C)Oc3ccc(C(=O)c4cn(CCCC(=O)O)c5ccccc45)cc3O2)cc1
IC50 [4]: 25 nM | IC50 [6]: 9 nM | IC50 [5]: 23 nM
